One assay addresses T1, Arabidopsis HST (Arabidopsis thaliana, UniProt Q1ACB3).
T1 construct: GST (factor Xa cleavage site) (N); made in house; host or cells: Sf9 insect cells (baculovirus, pAcG3X), membrane fraction
T1 sequence (Q1ACB3 70-386): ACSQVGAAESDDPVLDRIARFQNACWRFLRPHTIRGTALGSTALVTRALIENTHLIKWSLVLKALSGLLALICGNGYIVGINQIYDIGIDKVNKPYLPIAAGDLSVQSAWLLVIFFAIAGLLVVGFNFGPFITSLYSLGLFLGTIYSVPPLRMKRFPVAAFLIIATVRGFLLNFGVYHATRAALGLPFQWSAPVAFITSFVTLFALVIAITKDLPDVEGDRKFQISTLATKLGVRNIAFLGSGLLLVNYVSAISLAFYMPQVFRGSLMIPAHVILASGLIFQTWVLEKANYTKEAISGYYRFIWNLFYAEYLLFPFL
Nature of the assay: HST total extraction (non TLC) assay, recombinant Arabidopsis HST from insect cells. It is filed as biochemical.

The target in a further assay is T2, Chlamydomonas HST (Chlamydomonas reinhardtii, UniProt A1JHN0).
T2 construct: GST (N); made in house; host or cells: E. coli (BL21A1 / BL21DE3), membrane fraction
T2 sequence (A1JHN0 51-370): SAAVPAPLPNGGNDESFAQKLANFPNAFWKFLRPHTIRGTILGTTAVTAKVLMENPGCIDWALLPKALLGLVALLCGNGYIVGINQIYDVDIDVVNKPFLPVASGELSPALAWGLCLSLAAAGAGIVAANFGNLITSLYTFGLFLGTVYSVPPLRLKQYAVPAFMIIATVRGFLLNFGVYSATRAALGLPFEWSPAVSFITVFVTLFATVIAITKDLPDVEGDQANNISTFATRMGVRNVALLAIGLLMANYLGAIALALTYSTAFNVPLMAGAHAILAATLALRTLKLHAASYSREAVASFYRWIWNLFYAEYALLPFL
Put plainly: HST assay (TLC, MFBQ formed), recombinant Chlamydomonas HST in E. coli membranes. The note with it: for inhibition at 25 ppm: read-out: Chlamydomonas. HST % I at 25 ppm. The class given is biochemical. In a few lines:
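Recombinant GST-fused Chlamydomonas HST in E. coli membranes was incubated with 200 μM farnesyl diphosphate and 100 μM 14C-homogentisate in 50 mM Tricine-NaOH pH 8.5, 20 mM MgCl2 for ~20 min at 28 °C, with compounds in DMSO. Oxidised plus reduced MFBQ was quantified by TLC phosphorimaging. Results are percent inhibition versus no-inhibitor control across doses.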

[1] abbreviates: 3 point dose curves only conducted at 50 μM HPP.
[2] abbreviates: TLC, estimated amount of MFBQ formed, relative to controls.
Where [3] appears, read: 25 ppm, TLC, estimated amount of MFBQ formed, relative to controls.

Read-outs that look alike come from different tables or passages of the source. Marks after values point to notes of the source that are not given here.

On to `O=c1c(-c2c(F)ccc(F)c2Cl)c(O)c2nccnc2n1CC(F)F` [Compound 2.3], for which, at Arabidopsis HST (setting [1]), the “Estimated IC50 (ppm)” value is 19* ppm. For the same compound, at Chlamydomonas HST (setting [2]), the “Chlamydomonas. HST % I at 10 ppm” value is 40% and the “Chlamydomonas. HST % I at 100 ppm” value is 85%.
For `O=c1c(-c2c(F)ccc(F)c2Cl)c(O)c2cccnc2n1CC(F)F` [Compound 2.13], at Arabidopsis HST (setting [1]), the “Estimated IC50 (ppm)” value was 54* ppm. Besides, the “Chlamydomonas. HST % I at 25 ppm” value at Chlamydomonas HST (setting [3]) is 60%.
For `O=c1c(-c2cc(C(F)(F)F)ccc2Cl)c(O)c2nccnc2n1CC(F)F` [Compound 2.9], at Arabidopsis HST, the “Estimated IC50 (ppm)” value is 6 ppm. Besides, the inhibition at 25 ppm on Chlamydomonas HST (setting [3]) was 90%.
As to `O=c1c(-c2c(F)ccc(Br)c2Cl)c(O)c2cccnc2n1CC(F)F` [Compound 2.15], the “Estimated IC50 (ppm)” value at Arabidopsis HST is on record as 12 ppm.
For the compound `O=c1c(-c2c(F)ccc(Br)c2Cl)c(O)c2nccnc2n1CC(F)F` [Compound 2.8], the “Estimated IC50 (ppm)” value at Arabidopsis HST is on record as 12 ppm. In addition, the inhibition at 25 ppm at Chlamydomonas HST (setting [3]) was 85%.
On the same counts, the results for `O=c1c(-c2c(Cl)ccc(Cl)c2Cl)c(O)c2nccnc2n1CC(F)F` [Compound 2.14] are 9 ppm and 85%.
Consider `Oc1c(Cl)c(F)nc(F)c1Cl` [Compound 1.1, haloxydine], for which, at Chlamydomonas HST (setting [2]), the “Chlamydomonas. HST % I at 10 ppm” value is on record as 70% and the “Chlamydomonas. HST % I at 100 ppm” value is given as 95%. Moreover, at Chlamydomonas HST (setting [3]), the inhibition at 25 ppm is 80%. In addition, the “inhibition of the HST enzyme reaction (MFBQ and other products)” value at Chlamydomonas HST (500 ppm, stated for the HST enzyme preparations assayed) is reported as “completely inhibits”.
